Like-named read-outs stand apart in the source and are kept apart here.
Tested on: HIV-IIIb
Assay: Antiviral assay in MT4 cells
Format: cell-based
Conditions: Human immunodeficiency virus 1, IIIB, MT4, 120 h
Description: For the antiviral assay utilizing MT4 cells, 0.4 μL of 189X test concentration of 3-fold serially diluted compound in DMSO was added to 40 μL of cell growth medium (RPMI 1640, 10% FBS, 1% penicilline/Streptomycine, 1% L-Glutamine, 1% HEPES) in each well of 384-well assay plates (10 concentrations) in quidruplicate.
1 mL aliquots of 2×10^6 MT4 cells are pre-infected for 1 and 3 hours respectively at 37° C. with 25 μL (MT4) or of either cell growth medium (mock-infected) or a fresh 1:250 dilution of an HIV-IIIb concentrated ABI stock (0.004 m.o.i. for MT4 cells). Infected and uninfected cells are diluted in cell growth medium and 35 μL of 2000 (for MT4) cells is added to each well of the assay plates.
Assay plates were then incubated in a 37° C. incubator. After 5 days of incubation, 25 μL of 2× concentrated CellTiter-Glo™ Reagent (catalog # G7573, Promega Biosciences, Inc., Madison, Wis.) was added to each well of the assay plate. Cell lysis was carried out by incubating at room temperature for 2-3 minutes, and then chemiluminescence was read using the Envision reader (PerkinElmer).

[1] = MT4 cells infected with HIV-IIIb, 5 days, CellTiter-Glo, read-out: EC50 nM in MT-4
[2] = read-out: EC50 nM in MT-4, MT4 cells infected with HIV-IIIb, 5 days, CellTiter-Glo

Row | SMILES | EC50 [1] | EC50 [2]
1 | O=C(NCc1ccc(F)c(F)c1F)c1cn2c(c(O)c1=O)C(=O)N1[C@@H]3CC[C@@H](C3)O[C@H]1C2 [Compound 44, (13aS)-8-hydroxy-7,9-dioxo-N-(2,3,4-trifluorobenzyl)-2,3,4,5,7,9,13,13a-octahydro-2,5-methanopyrido[1′,2′:4,5]pyrazino[2,1-b][1,3]oxazepine-10-carboxamide] | 2.3 nM | 
2 | O=C(NCc1c(F)cc(F)cc1F)c1cn2c(c(O)c1=O)C(=O)N1[C@@H]3CC[C@@H](C3)O[C@H]1C2 [Compound 45, (13aS)-8-hydroxy-7,9-dioxo-N-(2,4,6-trifluorobenzyl)-2,3,4,5,7,9,13,13a-octahydro-2,5-methanopyrido[1′,2′:4,5]pyrazino[2,1-b][1,3]oxazepine-10-carboxamide] | 2.4 nM | 
3 | O=C(NCc1c(F)cccc1F)c1cn2c(c(O)c1=O)C(=O)N1[C@@H]3CC[C@@H](C3)O[C@H]1C2 [Compound 46, (13aS)—N-(2,6-difluorobenzyl)-8-hydroxy-7,9-dioxo-2,3,4,5,7,9,13,13a-octahydro-2,5-methanopyrido[1′,2′:4,5]pyrazino[2,1-b][1,3]oxazepine-10-carboxamide] | 2.6 nM | 
4 | O=C(NCc1ccc(F)cc1F)c1cn2c(c(O)c1=O)C(=O)N1[C@H]3CC[C@H](C3)[C@@H]1C2 [Compound 47, (1R,4S,12aR)—N-(2,4-difluorobenzyl)-7-hydroxy-6,8-dioxo-1,2,3,4,6,8,12,12a-octahydro-1,4-methanodipyrido[1,2-a:1′,2′-d]pyrazine-9-carboxamide] |  | 1.9 nM
5 | O=C(NCc1ncccc1C(F)(F)F)c1cn2c(c(O)c1=O)C(=O)N1[C@@H]3CC[C@@H](C3)O[C@H]1C2 [Compound 49, (2 S,5R,13aS)-8-hydroxy-7,9-dioxo-N-((3-(trifluoromethyl)pyridin-2-yl)methyl)-2,3,4,5,7,9,13,13a-octahydro-2,5-methanopyrido[1%2′: 4,5]pyrazino[2,1-b][1,3]oxazepine-10-carboxamide] | 33.3 nM | 
6 | O=C(NCc1ccc(F)cc1OC1CC1)c1cn2c(c(O)c1=O)C(=O)N1[C@@H]3CC[C@@H](C3)O[C@H]1C2 [Compound 52, (2S,5R,13aS)—N-(2-cyclopropoxy-4-fluorobenzyl)-8-hydroxy-7,9-dioxo-2,3,4,5,7,9,13,13a-octahydro-2,5-methanopyrido[1%2′: 4,5]pyrazino[2,1-b][1,3]oxazepine-10-carboxamide] | 15 nM | 
7 | O=C(NCc1ccc(F)cc1OC1CC1)c1cn2c(c(O)c1=O)C(=O)N1[C@H]3CC[C@H](C3)O[C@@H]1C2 [Compound 53, (2R,5S,13aR)—N-(2-cyclopropoxy-4-fluorobenzyl)-8-hydroxy-7,9-dioxo-2,3,4,5,7,9,13,13a-octahydro-2,5-methanopyrido[1%2′: 4,5]pyrazino[2,1-b][1,3]oxazepine-10-carboxamide] | 14.3 nM | 
8 | O=C(N[C@@H](c1ccc(F)cc1F)C(F)(F)F)c1cn2c(c(O)c1=O)C(=O)N1C(C2)O[C@@H]2CC[C@H]1C2 (stereo partly drawn) [Compound 54, (2R,5S)—N—((S)-1-(2,4-difluorophenyl)-2,2,2-trifluoroethyl)-8-hydroxy-7,9-dioxo-2,3,4,5,7,9,13,13a-octahydro-2,5-methanopyrido[1′,2′:4,5]pyrazino[2,1-b][1,3]oxazepine-10-carboxamide] | 15.6 nM | 
9 | O=C(NCc1c(F)cc(F)cc1F)c1cn2c(c(O)c1=O)C(=O)N1[C@H]3CC[C@H](C3)[C@H]1C2 [Compound 55, (1R,4S,12aS)-7-hydroxy-6,8-dioxo-N-(2,4,6-trifluorobenzyl)-1,2,3,4,6,8,12,12a-octahydro-1,4-methanodipyrido[1,2-a:1′,2′-d]pyrazine-9-carboxamide] | 1.5 nM | 
10 | O=C(NCc1c(F)cc(F)cc1F)c1cn2c(c(O)c1=O)C(=O)N1[C@@H]3C[C@H]([C@@H]1C2)C(F)(F)C3 [Compound 57, (1R,4R,12aR)-2,2-difluoro-7-hydroxy-6,8-dioxo-N-(2,4,6-trifluorobenzyl)-1,2,3,4,6,8,12,12a-octahydro-1,4-methanodipyrido[1,2-a:1′,2′-d]pyrazine-9-carboxamide] | 2.3 nM | 
11 | O=C(NCc1ccc(F)c(Cl)c1F)c1cn2c(c(O)c1=O)C(=O)N1[C@@H]3C[C@H]([C@@H]1C2)C(F)(F)C3 [Compound 58, (1R,4R,12aR)—N-(3-chloro-2,4-difluorobenzyl)-2,2-difluoro-7-hydroxy-6,8-dioxo-1,2,3,4,6,8,12,12a-octahydro-1,4-methanodipyrido[1,2-a:1′,2′-d]pyrazine-9-carboxamide] | 1.5 nM | 
12 | O=C(NCc1c(F)cc(F)cc1F)c1cn2c(c(O)c1=O)C(=O)N1[C@@H]3C[C@@H]([C@H](F)C3)[C@@H]1C2 [Compound 59, (1R,2R,4R,12aR)-2-fluoro-7-hydroxy-6,8-dioxo-N-(2,4,6-trifluorobenzyl)-1,2,3,4,6,8,12,12a-octahydro-1,4-methanodipyrido[1,2-a:1′,2′-d]pyrazine-9-carboxamide] | 3.1 nM | 
13 | O=C(NCc1cccc(Cl)c1Cl)c1cn2c(c(O)c1=O)C(=O)N1[C@H]3CC[C@H](C3)[C@@H]1C2 [Compound 60, (1R,4S,12aR)—N-(2,3-dichlorobenzyl)-7-hydroxy-6,8-dioxo-1,2,3,4,6,8,12,12a-octahydro-1,4-methanodipyrido[1,2-a:1′,2′-d]pyrazine-9-carboxamide] | 2.1 nM | 
14 | O=C(NCc1ccc(F)c(Cl)c1F)c1cn2c(c(O)c1=O)C(=O)N1[C@H]3CC[C@H](C3)[C@H]1C2 [Compound 61, (1R,4S,12aS)—N-(3-chloro-2,4-difluorobenzyl)-7-hydroxy-6,8-dioxo-1,2,3,4,6,8,12,12a-octahydro-1,4-methanodipyrido[1,2-a:1′,2′-d]pyrazine-9-carboxamide] | 1.8 nM | 
15 | O=C(NCc1ccc(F)cc1C(F)(F)F)c1cn2c(c(O)c1=O)C(=O)N1[C@H]3CC[C@H](C3)O[C@@H]1C2 [Compound 62, (2R,5S,13aR)—N-(4-fluoro-2-(trifluoromethyl)benzyl)-8-hydroxy-7,9-dioxo-2,3,4,5,7,9,13,13a-octahydro-2,5-methanopyrido[1′,2′:4,5]pyrazino[2,1-b][1,3]oxazepine-10-carboxamide] | 9.2 nM | 
16 | O=C(NCc1ccc(F)cc1Cl)c1cn2c(c(O)c1=O)C(=O)N1[C@H]3CC[C@H](C3)O[C@@H]1C2 [Compound 63, (2R,5S,13aR)—N-(2-chloro-4-fluorobenzyl)-8-hydroxy-7,9-dioxo-2,3,4,5,7,9,13,13a-octahydro-2,5-methanopyrido[1′,2′:4,5]pyrazino[2,1-b][1,3]oxazepine-10-carboxamide] |  | 2.5 nM
17 | O=C(NCc1cc(F)c(F)cc1F)c1cn2c(c(O)c1=O)C(=O)N1[C@H]3CC[C@H](C3)O[C@@H]1C2 [Compound 64, (2R,5S,13aR)-8-hydroxy-7,9-dioxo-N-(2,4,5-trifluorobenzyl)-2,3,4,5,7,9,13,13a-octahydro-2,5-methanopyrido[1′,2′:4,5]pyrazino[2,1-b][1,3]oxazepine-10-carboxamide] | 3.5 nM | 
18 | O=C(NCc1cc(Cl)c(F)cc1F)c1cn2c(c(O)c1=O)C(=O)N1[C@H]3CC[C@H](C3)O[C@@H]1C2 [Compound 65, (2R,5 S,13aR)—N-(5-chloro-2,4-difluorobenzyl)-8-hydroxy-7,9-dioxo-2,3,4,5,7,9,13,13a-octahydro-2,5-methanopyrido[1′,2′: 4,5]pyrazino[2,1-b][1,3]oxazepine-10-carboxamide] | 2.4 nM | 

Source: patent US10689399B2, “Substituted 3,4,5,6,8,10,14,14a-octahydro-2h-2,6-methanopyrido[1′,2′:4,5]pyrazino[2,1-b][1,3]oxazocines and methods for treating viral infections” (Gilead Sciences, Inc., priority 2012, dated 2020)
